Measured values published in ChEMBL document CHEMBL4765264, “Design, synthesis and biological evaluation of novel 2-(5-aryl-1H-imidazol-1-yl) derivatives as potential inhibitors of the HIV-1 Vpu and host BST-2 protein interaction” (Eur J Med Chem, 2020).

Columns and labels:
[1] = (§1) Inhibition of recombinant HIV1 Viral Protein U expressed in Escherichia coli BL21(DE3) cells/BST-2 (unknown origin) interaction at 100 uM preincubated for 30 mins with viral protein U followed by further incubation with BST-2 for 1 hr by sandwich ELISA relative to control; details: time 90.0 min
[2] = as §1, with “recombinant biotinylated” for “recombinant”, “BL21(DE3)cells/recombinant GST-tagged BST-2” for “BL21(DE3) cells/BST-2”, “Alphascreen assay” for “sandwich ELISA”; details: time 90.0 min
[3] = tested on: Human immunodeficiency virus 1; assay: Antiviral activity against HIV1 LAV infected in human MT4 cells assessed as reduction in viral replication by measuring reduction in p24 expression incubated for 72 hrs by ELISA; format: functional, organism-based; details: Human immunodeficiency virus 1, LAV, MT4, 72 h
[4] = tested on: Human immunodeficiency virus 1; assay: Antiviral activity against HIV1 infected in PBMC assessed as reduction in viral replication by measuring reduction in p24 production by ELISA; format: functional, organism-based; details: Human immunodeficiency virus 1, PBMC
[5] = Aqueous solubility of the compound in phosphate buffer saline at 200 uM at wavelength of 250 nm incubated for overnight under shaking condition by filtration assay based UV-visible spectroscopy; format: physicochemical
[6] = Aqueous solubility of the compound in phosphate buffer saline at 100 uM at wavelength of 250 nm incubated for overnight under shaking condition by filtration assay based UV-visible spectroscopy; format: physicochemical
[7] = Cytotoxicity against human MT4 cells assessed as inhibition of cell viability incubated for 72 hrs by MTS assay; format: cell-based
[8] = Inhibition of recombinant biotinylated HIV1 Viral Protein U expressed in Escherichia coli BL21(DE3) cells/recombinant GST-tagged BST-2 (unknown origin) interaction preincubated for 30 mins with viral protein U followed by further incubation with BST-2 for 1 hr by Alphascreen assay
[9] = Selectivity index, ratio of CC50 for human MT4 cells to EC50 for antiviral activity against HIV1 LAV infected in human MT4 cells; format: toxicity, cell-based; details: MT4 cells (CC50) and HIV1 LAV infected MT4 cells (EC50)

Which inhibition [1] does the source give for `CC(C)(C)c1ccc(-c2cncn2CC(=O)O)cc1` here?
Its inhibition is 2%.

For `CC(C)(C)c1ccc(-c2cncn2CC(=O)NN)cc1`, which inhibition [1] is on record?
The inhibition was 45%.

With `O=C(O)Cn1cncc1-c1ccc(F)cc1` as the compound, how does the inhibition [1] read?
The inhibition was 11%.

With `CCOC(=O)[C@H](C)n1cncc1-c1ccc(OC)c(OC)c1` as the compound, how does the inhibition [1] read?
Its inhibition is 20%.

For `CCOC(=O)Cn1cncc1-c1ccc(F)cc1`, which inhibition [1] is on record?
Its inhibition is 54%.

And the inhibition [2]?
The inhibition was 55%.

With `CCOC(=O)Cn1cncc1-c1cccc(OC)c1` as the compound, how does the inhibition [1] read?
Its inhibition is 51%.

And the inhibition [2]?
Its inhibition is 56%.

For `NNC(=O)Cn1cncc1-c1ccc2c(c1)OCO2`, which inhibition [1] is on record?
The inhibition was 22%.

With `COc1ccc(-c2cncn2CC(=O)O)cc1O` as the compound, how does the inhibition [1] read?
The inhibition was 0%.

For `Cc1nnc(C(=O)NC(C)(C)c2nc(C(=O)NCc3ccc(F)cc3)c(O)c(=O)n2C)o1` [RALTEGRAVIR], which EC50 [3] is on record?
Its EC50 is 0.0079 µM.

And the EC50 [4]?
The EC50 was no more than 0.008 µM.

Which results are given for `CCOC(=O)Cn1cncc1-c1ccccc1`?
EC50 [3]: 6.3 µM; solubility at 200 µM [5]: ≥ 200 µM; solubility at 100 µM [6]: ≥ 100 µM; inhibition [1]: 82%; CC50 at 72 h [7]: 184 µM; IC50 [8]: 11.6 µM; inhibition [2]: 83%; selectivity ratio [9]: 29

For `O=C(O)Cn1cncc1-c1ccccc1`, which inhibition [1] is on record?
Its inhibition is 0%.

What does the source list for `COc1cccc(-c2cncn2CC(=O)NN)c1`?
EC50 [3]: 158 µM; solubility at 200 µM [5]: ≥ 200 µM; solubility at 100 µM [6]: ≥ 100 µM; inhibition [1]: 69%; CC50 at 72 h [7]: 160 µM; IC50 [8]: 17.6 µM; inhibition [2]: 68%; selectivity ratio [9]: 1

With `O=C(O)Cn1cncc1-c1ccc2c(c1)OCO2` as the compound, how does the inhibition [1] read?
The inhibition was 9%.

Which inhibition [1] does the source give for `COc1ccc(-c2cncn2CC(=O)NN)cc1O` here?
The inhibition was 72%.

What about the inhibition [2] of the same compound?
Its inhibition is 60%.

For `COc1ccc(-c2cncn2CC(=O)O)cc1OC`, which inhibition [1] is on record?
Its inhibition is 25%.

For `NNC(=O)Cn1cncc1-c1ccccc1`, which inhibition [1] is on record?
Its inhibition is 39%.

Which inhibition [1] does the source give for `CCOC(=O)Cn1cncc1-c1ccc(OC)c(OC)c1` here?
The inhibition was 58%.

What about the inhibition [2] of the same compound?
Its inhibition is 61%.

For `NNC(=O)Cn1cncc1-c1ccc(F)cc1`, which inhibition [1] is on record?
Its inhibition is 48%.

With `CCOC(=O)Cn1cncc1-c1ccc2c(c1)OCO2` as the compound, how does the inhibition [1] read?
The inhibition was 33%.

Which inhibition [1] does the source give for `CCOC(=O)Cn1cncc1-c1ccc(OC)c(O)c1` here?
Its inhibition is 30%.

With `O=c1cnn([C@@H]2O[C@H](CO)[C@@H](O)[C@H]2O)c(=S)[nH]1` as the compound, how does the inhibition [1] read?
The inhibition was 54%.

With `COc1cccc(-c2cncn2CC(=O)O)c1` as the compound, how does the inhibition [1] read?
The inhibition was 30%.

Which results are given for `CCOC(=O)[C@H](C)n1cncc1-c1ccc(F)cc1`?
inhibition [1]: 63%; inhibition [2]: 64%

With `CCOC(=O)Cn1cncc1-c1ccc(C(C)(C)C)cc1` as the compound, how does the inhibition [1] read?
Its inhibition is 17%.

Which inhibition [1] does the source give for `CCOC(=O)[C@H](C)n1cncc1-c1ccccc1` here?
Its inhibition is 22%.

For `COc1ccc(-c2cncn2CC(=O)NN)cc1OC`, which inhibition [1] is on record?
Its inhibition is 28%.
